Converted amounts (≈) assume the structure as drawn.
Key:
Assay type in all cases: cell-based
IRS-2 = IRS-2 association with p85 of PI3-kinase in MCF-7 cells; settings: 5 mins., ATA or EB 300 μg/ml, IGF-1 20 ng/ml
Procedure: FIG. 4 is the effect of ATA and EB on tyrosine phosphorylation of IRS-2: MCF-7 cells were treated as in FIG. 3. Total cell extracts, solubilized in Buffer C, were immunoprecipitated with an antibody to IRS-2. The immunocomplexes, precipitated with protein A-Sepharose beads were subjected to 7.5% SDS-PAGE, followed by immunoblotting with a phosphotyrosine antibody and an antibody to the 85-kDA subunit of PI3-kinase.
(§1) Cells were solubilized in Buffer A or C. Extracts were immunoprecipitated at 4° C. with antibodies to IRS-1, IRS-2, IGF-1 or IR receptor or Grb2, adsorbed on protein A-Sepharose beads. The immunocomplexes were pelleted by centrifugation at 12,000×g and washed twice with Buffer A, and twice with Buffer A containing 0.1% Triton x-100. The pellets were then suspended in Laemmli sample buffer and resolved on 7.5% SDS-PAGE.
(§2) Nitrocellulose blots of proteins were incubated with the antibodies, and proteins were detected by enhanced chemiluminescence using horseradish peroxidase-labeled protein A, horseradish peroxidase-labeled anti rabbit IgG or horseradish peroxidase-labeled anti-mouse IgG.
(§3) MCF-7 cells were stimulated with ATA, EB or IGF-1, solubilized and immunoprecipitated with anti IRS-1 or IRS-2 antibodies, separated by SDS-PAGE and immunoblotted with anti-phosphotyrosine antibody. […] The association of IRS-1 with Grb-2 was evaluated in lysates from treated cells which were immunoblotted with antibodies to either phosphotyrosine or IRS-1.

MCF-7 cells = assay: Cell death estimation, cycloheximide-exposed MCF-7 cells (trypan blue); settings: for Effect on percent of dead cells: cells exposed to CX for 48 hours, compared with Control not exposed to CX
Procedure: Subconfluent cultures of MCF-7 cells in 35 mm dishes, were deprived of serum for 20 hours and then exposed to 30 μg/ml cycloheximide in the presence or absence of increasing concentrations of fractionated ATA, crude ATA or EB. After 48 hours, the cells were detached with trypsin. The medium and the detached cells were pooled and centrifuged at 1000×g for 10 mins. Cell viability was estimated by adding an equivalent volume of trypan blue solution to an aliquot of suspended cells. Stained and unstained cells were counted on a hemocytometer (10^3 cells were counted for each determination).
Subconfluent, 20 hours starved MCF-7 cells were exposed to 30 μg/ml
of cycloheximide in the presence of increasing
concentrations of fractionated ATA (0, 6, 12, 25, 50 μg/ml). After
48 hours, percent of dead cells was
determined as described under "Experimental procedures". In the
presence of cycloheximide only, 60-70% of
the cells were dead after 48 hours.
Cultures of […] cells were exposed to 30 μg CX for 48 hours in the presence of EB, ATA, IGF-1, or nothing.

[1] = system: 185 kDa protein(s) (p185); assay: Tyrosine phosphorylation of p185 in MCF-7 cells (anti-phosphotyrosine immunoblot); settings: MCF-7 cells; for Tyrosine phosphorylation of a 185 kDa protein(s): ATA, EB each at 300 μg/ml, IGF-1 at 20 ng/ml; for Exposure time at which p185 phosphorylation peaked: 300 μg/ml ATA, 30 μg/ml EB
Procedure: FIG. 1 is the effect of ATA and EB on tyrosine phosphorylation: MCF-7 cells, grown in 35 mm dishes were solubilized in Buffer A (a) or Buffer B (b-c). The solubilized cells were subjected to 7.5% SDS-PAGE and immunoblotted with an anti-phosphotyrosine antibody. (a) Cells treated for 5 mins. with ATA, EB, each at 300 μg/ml, IGF-1 at 20 ng/ml, or without additives (CON); (b) Cells treated with 300 μg/ml ATA for the indicated times; (c) Cells treated with 30 μg/ml EB for the indicated times; (d) Cells treated for 5 mins. with the indicated concentrations of ATA; (e) Cells treated for 5 mins. with the indicated concentrations of EB. Molecular mass markers (in kDa) are indicated on the right.
FIG. 2 is the effect of ATA and vanadate on the IGF-1 stimulated tyrosine phosphorylation of p185: A--Cells treated for 5 mins. with the indicated concentrations of IGF-1 in the presence or absence of 300 μg/ml ATA; B--Cells pre-incubated for 3 hours with or without 50 μM vanadate were incubated for 5 mins. with ATA, EB each at 300 μg/ml or with 10 ng/ml IGF-1 in the presence or absence of vanadate. Cytosols extracted in Buffer B were analyzed by immunoblotting with anti-phosphotyrosine antibody as in FIG. 1.
FIG. 8 is the effect of fractionated ATA on p185 phosphorylation: A--Crude ATA was separated on a Bio-Rad P-4 column and the combined void volume was then gel filtrated on a column of Bio-Rad P-10. The column was calibrated with the following molecular weight markers: DB-Dextran blue; CC-cytochrome C: Ins-insulin; B12-Vitamin B12. B--MCF-7 cells were incubated for 5 mins. with the indicated fractions of ATA (eluted from the P-10 column shown in A), crude ATA, each at 200 μg/ml or IGF-1 at 20 ng/ml. Cytosols, solubilized in Buffer B were subjected to 7.5% SDS-PAGE and immunoblotted with phosphotyrosine antibody.
MCF-7 cells were grown in 35 or 100 mm dishes in DMEM with 5% bovine fetal serum. Rat hepato FaO cells were grown in RPMI 1640 medium supplemented with 10% fetal calf serum. Subconfluent monolayers of MCF-7 cells or FaO cells, were deprived of serum for 20 hours prior to each experiment. The medium was removed, and cells were incubated at 37° C. under the conditions as indicated for each experiment. The reaction was terminated by removing the medium and freezing the monolayers with liquid nitrogen. In some experiments, cells were preincubated with 50 μM sodium orthovanadate for 3 hours.
Cells were solubilized at 4° C. with 0.2 ml/35 mm dish or 2 ml/100 mm dish of the indicated buffer. The solubilized cells were scraped and sedimented by centrifugation at 12,000×g for 30 mins. at 4° C. Aliquots of the supernatants were normalized for protein, mixed with concentrated (5×) Laemmli sample buffer, boiled for 10 mins. and resolved on 7.5 or 12% SDS-PAGE under reducing conditions.
as §2

IRS-1 = IRS-1 tyrosine phosphorylation and association with p85/Grb2 in MCF-7 cells; settings: 5 mins., ATA or EB 300 μg/ml, IGF-1 20 ng/ml
Procedure: FIG. 3 is the effect of ATA and EB on tyrosine phosphorylation or IRS-1: MCF-7 cells grown in 100 mm dishes, were treated with ATA or EB, each at 300 μg/ml, or 20 ng/ml IGF-1 for 5 mins. Total cell extracts, solubilized in Buffer A, were subjected to immunoprecipitation with antibodies to IRS-1 (a) or Grb2 (b). The immunocomplexes, precipitated with protein G-Sepharose beads, were subjected to 7.5% SDS-PAGE followed by immunoblotting with a phosphotyrosine antibody, an antibody to the 85-kDa subunit of PI3-kinase or antibody to IRS-1.
as §1, §2, §3

Compound | Association of p85 subunit of PI3-k with IRS-2 (IRS-2) | Percent dead cells (MCF-7 cells; 30 μg CX, 48 hours, ATA 100 μg/ml) [%] | IC50 (MCF-7 cells; Homo sapiens, MCF7, starved MCF-7 cells, 30 μg/ml cycloheximide, 48 hours, read-out: IC50, concentration which inhibits 50% of cell death induced by cycloheximide) [µg/mL] | Effect on percent of dead cells (MCF-7 cells) | Concentration of maximal p185 phosphorylation ([1]; 5 mins.) [µg/mL] | Effect on IGF-1 induced phosphorylation of the 185 kDa protein(s) ([1]; 5 mins., 300 μg/ml ATA with IGF-1) | pp185 (arbitrary units) ([1]; 5 mins., ATA fractions or crude ATA each at 200 μg/ml, scanned autoradiogram from FIG. 8B, Control 100) | Tyrosine phosphorylation of a 185 kDa protein(s) ([1]; 5 mins.) | Exposure time at which p185 phosphorylation peaked [1] [min] | Association of IRS-1 with Grb-2 (IRS-1) | Association of p85 subunit of PI3-k with IRS-1 (IRS-1) | Phosphorylation of IRS-1 (IRS-1)
O=C(O)C1=CC(=C(c2ccc(O)c(C(=O)O)c2)c2ccc(O)c(C(=O)O)c2)C=CC1=O [ATA, Aurintricarboxylic acid] | p85 precipitates | 8 ± 3 | 18 (≈ 42.6 µM) | reduced the percent of dead cells to that observed in cells not exposed to CX | 300 to 400 | unaffected | 668 | enhanced tyrosine phosphorylation of a 185 kDa protein(s) | 2 | IRS-1 co-precipitated with Grb2 | p85 precipitates with IRS-1 | stimulated the phosphorylation of IRS-1
Cc1cc(-c2ccc(N=Nc3ccc4c(S(=O)(=O)O)cc(S(=O)(=O)O)c(N)c4c3O)c(C)c2)ccc1N=Nc1ccc2c(S(=O)(=O)O)cc(S(=O)(=O)O)c(N)c2c1O [EB, Evan's Blue] | p85 precipitates |  |  | reduced the percent of dead cells to that observed in cells not exposed to CX | 300 to 400 |  |  | enhanced tyrosine phosphorylation of a 185 kDa protein(s) | 5 | IRS-1 co-precipitated with Grb2 | p85 precipitates with IRS-1 | stimulated the phosphorylation of IRS-1

Source: patent US6020374A, “Biologically active synthetic dye compounds” (priority 1998, dated 2000)
